Measurements published in publication PMC5812297, “Specificity and Application of the Lantibiotic Protease NisP” (Frontiers in Microbiology, 2018).
Ends that are not written are not given here.

Assays:
[1] = tested on: L. lactis NZ9000 (pNZnisP-8H); assay: Antimicrobial activity of purified prelantibiotics against NisP producing sensor strain; format: cell-based, Lactococcus lactis; settings: no NisP, data not shown
Method: Activity tests were performed by well-diffusion assay as indicated by van Heel et al. ([2013]). L. lactis NZ9000 transformed with the appropriate plasmids or Micrococcus flavus were used as sensor strains as specified in each figure. The cleavage of nisin by NisP after SDS-PAGE was monitored washing the gel according to Bhunia et al. ([1987]) and covering with an overlay of GM17 soft agar inoculated with NZ9000 (pIL3BTC pNZnisA-E3) induced with 1 ng/ml nisin. The overlay was incubated for 16 h, after which the presence of inhibition zones was evaluated.
The substrate tolerance of soluble NisP was tested using a set of different lantibiotics. These were produced using the nisin modification machinery encoded in NZ9000 (pIL3BTC pNZE3-mutant) and purified by cationic exchange chromatography. For this purpose, NZ9000 (pNZ-nisP-8H) was used as a sensor strain and tested using gallidermin (van Heel et al., [2013]) and two lantibiotics detected in the genome of Streptococcus pneumoniae, PneA1 and PneA2 encoded in the genes spr1765 and spr1766, respectively, which were heterologously expressed in L. lactis fused to the nisin leader peptide (Majchrzykiewicz et al., [2010]) (Figure 5). […] The activity was restored when a strain producing soluble NisP was employed.
Figure 5 Antimicrobial activity of purified modified lantibiotics gallidermin, 1215 and 1268 against L. lactis NZ9000 (pNZnisP-8H). […]

NisP = assay: Cleavage of nisin mutants by NisP in crude supernatants or purified peptide, masses by MALDI-TOF; format: biochemical, Lactococcus lactis; settings: His-tagged purified NisP, overnight 37°C, ratio 1000:1, culture pH (4.5–5.0) or pH 6.0, MALDI-TOF
Method: Alternatively, supernatants containing nisin mutant peptides produced after induction were divided into two fractions; one in which the pH was adjusted to 6.0 and the other one where the pH was the actual fermentation pH. They were incubated overnight at 37°C with or without His-tagged purified NisP at a ratio of 1000:1. After the incubation, the supernatants were precipitated using TCA and resuspended in 1/20 volume 0.05% acetic acid. For the mutants that were produced in lower amounts, larger volumes were induced and the peptides were purified by cationic exchange chromatography as described before and separated by reverse phase chromatography using a Jupiter 4 μm Proteo 90 Å 250 × 4.6 mm C12 analytical column (Phenomenex). The column was equilibrated in 20% organic solvent (acetonitrile 0.1% TFA) before the sample injection. It was washed for 5 min before applying a linear gradient from 20 to 50% organic solvent in 20 min. 1 μl of each collected peak was used for mass-spectrometry determination.
Mass spectrometry analysis of the samples was performed by matrix-assisted laser desorption/ionization (MALDI) time-of-flight (ToF) in an ABI Voyager DE Pro (Applied Biosystems) operating in linear mode as previously described using external calibration (van Heel et al., [2013]). Briefly, 1 μl sample was spotted, dried and washed with 5 μL Milli-Q water, on the target. Next, 1 μl of α-cyano-4-hydroxycinnamic acid 5 mg/ml (Sigma-Aldrich) was spotted on the sample.
We designed a set of nisin mutants to investigate the specificity of NisP (Figure 4). For all these mutants, supernatants were collected after induction and divided into three fractions. NisP was added to two of these fractions, one maintaining the pH of the culture (4.5–5.0) and the other fraction was adjusted to pH 6.0. The third fraction was used as an untreated control. After cleavage, the masses of the peptides were monitored by MALDI-TOF (Table 2).

engineered soluble NisP = assay: Enzyme kinetic assay of NisP cleavage of prenisin variants (Lineweaver–Burk, RP-HPLC); format: biochemical, Lactococcus lactis; settings: for Kcat/Km in comparison, in words: among the four prenisin variants, or vs literature
Method: In order to investigate the substrate specificity and kinetic parameters of NisP, a set of mutants of P4-P1 was created. We used wild-type prenisin (ASPR), nis-Peng (VSLR), nis-Thrombin (AVPR), and nis-Factor Xa (IEGR) as substrates. The concentration of NisP was determined by the BCA assay with bovine serum albumin as standard. The conditions of cleavage reaction were optimized with 100 mM Tris buffer containing 5 mM CaCl2 (pH 6.0). The reaction was stopped at the indicated times adding TFA to a final concentration of 1%. The reaction was performed in 100 μl with 6.5 ng/ml NisP at 37°C. 1% TFA was added to terminate the reaction at 5 different time points (5, 15, 30, 45, and 60 min). All the samples were analyzed by analytical RP-HPLC as indicated before (Mu et al., [2015]) and measuring the absorbance at 205 nm. For each substrate concentration, the initial velocity was calculated on the basis of the peak area of released nisin vs. time. The kinetic parameters were determined by fitting the calculated enzyme activities at different substrate concentrations (ranging from 1 to 25 μM) to a linear regression curve on Lineweaver–Burk double reciprocal plot (Lineweaver and Burk, [1934]).

sensor bacteria = settings: only antimicrobial activity as evidence, ref Kuipers et al., [1995]; cited from earlier work
Description: It was anticipated that the binding of dehydrobutyrine in position P2′ was less important than the interaction of Ile in position P1′ with a hydrophobic groove in NisP (Siezen et al., [1995]). Some mutants like I1W were previously shown to be cut by NisP using only the antimicrobial activity as evidence (Kuipers et al., [1995]). […] We could observe that an ...

prenisin = settings: cell extracts of induced E. coli, ref van der Meer et al., [1993]; cited from earlier work
Description: During the production of nisin, the protease NisP is exported and anchored to the cell wall in a sortase-mediated manner. In previous attempts to characterize the specificity of NisP, the in vivo cleavage was based on the detection of the antimicrobial activity and the detection of mature lantibiotic compared to that of the prelantibiotic (van der Meer et al., [1994]). The activity in vitro could be confirmed using membrane preparations of cells expressing NisP bound to the cell wall, which limited the assays. Therefore, we engineered a soluble NisP variant that could facilitate this task. Our ...

[2] = 100 mM Tris 5 mM CaCl2 pH 6.0, 37°C, 6.5 ng/ml NisP, substrate 1 to 25 μM, Lineweaver–Burk, mean value ± standard deviation

## WT Prenisin (ASPR): fully modified nisin with its leader peptide (ASPR cleavage site); inactive until leader is removed (MSTKDFNLDLVSVSKKDSGASPRITSISLCTPGCKTGALMGCNMKTATCHCSIHVSK; not fully specified (bridges); cysteine pairing not given here; also: fully modified nisin, modifications not placed; UniProt P13068 1-57, looked up)
[1]
  Antimicrobial activity in the absence of NisP: none of the prelantibiotics tested, not even prenisin, was active
NisP
  Cleavage by NisP: fully cleaved
Engineered soluble NisP; 100 mM Tris 5 mM CaCl2 pH 6.0, 37°C, 6.5 ng/ml NisP
  Kcat/Km (catalytic efficiency): 1.71e+06 M⁻¹ s⁻¹
Engineered soluble NisP; 100 mM Tris 5 mM CaCl2 pH 6.0, 37°C, 6.5 ng/ml NisP, substrate 1 to 25 μM, 5-60 min, RP-HPLC 205 nm, Lineweaver–Burk, mean value ± standard deviation
  Km: 730 ± 80 nM
Engineered soluble NisP; [2]
  Kcat: 1.25 ± 0.07 s⁻¹
  Vmax: 1.79 ± 0.10 µmol/mg/min
Engineered soluble NisP; listed as wild-type nisin
  Kcat/Km in comparison, in words: in line with previous results in literature
Engineered soluble NisP; listed as wild-type prenisin (ASPR)
  Kcat/Km in comparison, in words: highest catalytic efficiency

## nisin I1W: Nisin I1W mutant (MSTKDFNLDLVSVSKKDSGASPRWTSISLCTPGCKTGALMGCNMKTATCHCSIHVSK; ends and bridges not checked; cysteine pairing not given here; UniProt P13068 1-57, looked up, variant I1W)
Sensor bacteria
  Cleavage by NisP (earlier work): cut by NisP
NisP
  Cleavage by NisP: fully processed

B1: cell wall attached NisP: full length NisP expressed in E. coli (van der Meer et al., 1993) (protein, UniProt Q07596 1-682, looked up)
chain: MKKILGFLFIVCSLGLSATVHGETTNSQQLLSNNINTELINHNSNAILSSTEGSTTDSINLGAQSPAVKSTTRTELDVTGAAKTLLQTSAVQKEMKVSLQETQVSSEFSKRDSVTNKEAVPVSKDELLEQSEVVVSTSSIQKNKILDNKKKRANFVTSSPLIKEKPSNSKDASGVIDNSASPLSYRKAKEVVSLRQPLKNQKVEAQPLLISNSSEKKASVYTNSHDFWDYQWDMKYVTNNGESYALYQPSKKISVGIIDSGIMEEHPDLSNSLGNYFKNLVPKGGFDNEEPDETGNPSDIVDKMGHGTEVAGQITANGNILGVAPGITVNIYRVFGENLSKSEWVARAIRRAADDGNKVINISAGQYLMISGSYDDGTNDYQEYLNYKSAINYATAKGSIVVAALGNDSLNIQDNQTMINFLKRFRSIKVPGKVVDAPSVFEDVIAVGGIDGYGNISDFSNIGADAIYAPAGTTANFKKYGQDKFVSQGYYLKDWLFTTANTGWYQYVYGNSFATPKVSGALALVVDKYGIKNPNQLKRFLLMNSPEVNGNRVLNIVDLLNGKNKAFSLDTDKGQDDAINHKSMENLKESRDTMKQEQDKEIQRNTNNNFSIKNDFHNISKEVISVDYNINQKMANNRNSRGAVSVRSQEILPVTGDGEDFLPALGIVCISILGILKRKTKN
modifications: full-length
prenisin
  Activation of prenisin: could activate prenisin
